The source made the active and inactive calls. The calls are words filed in the database; no cut-off is given here.
Experiments:
Toxoplasma gondii [1] = assay: Antiparasitic activity against tachyzoite stage of Toxoplasma gondii expressing beta-gal infected in HFF after 4 days by […] based assay; type: functional, organism-based; details: 96 h
Toxoplasma gondii [2] = assay: Antiparasitic activity against tachyzoite stage of Toxoplasma gondii infected in HFF assessed as inhibition of parasite replication by measuring parasitophorous vacuoles containing 1, 2, 4 and 8 tachyzoites at 10 uM after 24 hrs by microscopic analysis; type: functional, organism-based
[3] = Therapeutic index, ratio of TD50 for HFF to IC50 for tachyzoite stage of Toxoplasma gondii expressing beta-gal infected in HFF; type: toxicity; details: human; read-out: TI
Toxoplasma gondii [4] = assay: Antiparasitic activity against tachyzoite stage of Toxoplasma gondii infected in HFF assessed as reduction in parasite attachment to host cell at 10 uM pretreated with parasite for 20 mins followed by infection in HFF measured by immunofluorescence staining based assay; type: functional, organism-based
Toxoplasma gondii [5] = assay: Antiparasitic activity against tachyzoite stage of Toxoplasma gondii infected in HFF assessed as reduction in parasite invasion at 10 uM pretreated with parasite for 20 mins followed by infection in HFF measured by immunofluorescence staining based assay; type: functional, organism-based
[6] = Cytotoxicity against HFF by CellTiter96 AQueous one solution cell proliferation assay; type: cell-based; details: human, HFF cells; read-out: TD50 (the source's name)
Toxoplasma gondii [7] = assay: Antiparasitic activity against tachyzoite stage of Toxoplasma gondii infected in HFF assessed as inhibition of parasite replication by measuring parasitophorous vacuoles containing 1 or 2 tachyzoites at 10 uM after 24 hrs by microscopic analysis; type: functional
Toxoplasma gondii [8] = assay: Antiparasitic activity against tachyzoite stage of Toxoplasma gondii infected in HFF assessed as inhibition of parasite replication by measuring increase in parasitophorous vacuoles containing 1 tachyzoites at 10 uM after 24 hrs by microscopic analysis; type: functional, organism-based

| Compound | IC50 (Toxoplasma gondii [1]) [µM] | IC90 (Toxoplasma gondii [1]) [µM] | inhibition (Toxoplasma gondii [2]) | selectivity ratio [3] | Activity (Toxoplasma gondii [4]) | Activity (Toxoplasma gondii [5]) | CC50 [6] [µM] | inhibition at 10 µM (Toxoplasma gondii [7]) [%] | inhibition (Toxoplasma gondii [8]) |
| --- | --- | --- | --- | --- | --- | --- | --- | --- | --- |
| CN(C)c1ccc(-c2nc(O)c3ccccc3n2)cc1 | 14 | 281 | inactive | 23 | Active | Active | ≥ 320 | – | – |
| O=c1c2ccccc2nc(-c2ccc(OCc3ccccc3)cc2)n1-c1ccc(Br)cc1 | 3 | 12 | – | 2 | – | Active | 5 | > 75 | Active |
| CN(C)c1ccc(-c2nc3ccccc3c(=O)n2CCc2ccc(O)cc2)cc1 | 112 | 353 | – | 2 | – | – | 196 | – | – |
| O=c1[nH]c(-c2ccc(Br)cc2)nc2ccccc12 | 92 | 414 | – | 3 | Active | Active | ≥ 320 | – | Active |
| COc1ccc(-n2c(-c3ccc4c(c3)OCO4)nc3ccccc3c2=O)cc1 | 40 | 91 | – | 8 | – | – | ≥ 320 | – | – |
| O=c1c2ccccc2nc(-c2ccc(Br)cc2)n1-c1ccc(Br)cc1 | 44 | 126 | – | 7 | – | – | ≥ 320 | – | – |
| CCCCCCn1c(-c2ccc(Br)cc2)nc2ccccc2c1=O | 60 | 193 | – | 1 | Active | Active | 88 | – | Active |
| CC(C)CCn1c(-c2ccc(OCc3ccccc3)cc2)nc2ccccc2c1=O | 12 | 55 | – | 10 | – | – | 118 | – | – |
| Oc1nc(-c2ccc(F)cc2)nc2ccccc12 | 29 | 260 | – | 11 | – | – | ≥ 320 | – | – |
| O=C1C(O)=C([C@H]2CC[C@H](c3ccc(Cl)cc3)CC2)C(=O)c2ccccc21 [ATOVAQUONE] | 0.2 | 0.6 | – | 111 | – | – | 21 | – | – |
| O=c1[nH]c(-c2ccc(OC(F)(F)F)cc2)nc2ccccc12 | 27 | 447 | – | 12 | – | – | ≥ 320 | – | – |
| CN(C)c1ccc(-c2nc3ccccc3c(=O)n2Cc2ccccc2)cc1 | 12 | 60 | – | 11 | – | – | 133 | – | – |
| COc1ccccc1-c1nc(O)c2ccccc2n1 | 56 | 266 | – | 5 | – | – | 305 | – | – |
| CCCCCCCCCCn1c(-c2ccc(OCc3ccccc3)cc2)nc2ccccc2c1=O | 25 | 119 | – | 13 | – | – | ≥ 320 | – | – |
| O=c1[nH]c(-c2ccc3c(c2)OCO3)nc2ccccc12 | 50 | 443 | – | 6 | – | – | ≥ 320 | – | – |
| COc1ccc(-c2nc3ccccc3c(=O)[nH]2)cc1 | 20 | 121 | – | 6 | – | – | 125 | – | – |
| CN(C)c1ccc(-c2nc3ccccc3c(=O)n2C2CCCCC2)cc1 | 15 | 67 | – | 7 | – | – | 112 | – | – |

| Compound | IC50 (Toxoplasma gondii [1]) [µM] | IC90 (Toxoplasma gondii [1]) [µM] | inhibition (Toxoplasma gondii [2]) | selectivity ratio [3] | Activity (Toxoplasma gondii [4]) | Activity (Toxoplasma gondii [5]) | CC50 [6] [µM] | inhibition at 10 µM (Toxoplasma gondii [7]) [%] | inhibition (Toxoplasma gondii [8]) |
| --- | --- | --- | --- | --- | --- | --- | --- | --- | --- |
| O=c1[nH]c(-c2ccc(OCc3ccccc3)cc2)nc2ccccc12 | 153 | 4990 | – | 2 | – | – | ≥ 320 | – | – |
| O=c1c2ccccc2nc(-c2ccc(OCc3ccccc3)cc2)n1CCc1ccc(O)cc1 | 17 | 52 | – | 13 | – | – | 229 | – | – |
| COc1ccc(-c2nc3ccccc3c(=O)n2-c2ccc(Br)cc2)cc1 | 31 | 83 | – | 6 | – | – | 196 | – | – |
| CCCCCCn1c(-c2ccc(N(C)C)cc2)nc2ccccc2c1=O | 18 | 52 | – | 3 | – | – | 50 | – | – |
| CCCCCCn1c(-c2ccc(OC)cc2)nc2ccccc2c1=O | 10 | 48 | – | 4 | – | – | 42 | – | – |
| COc1ccc(-n2c(-c3ccc(OCc4ccccc4)cc3)nc3ccccc3c2=O)cc1 | 4 | 14 | – | 1 | Active | Active | 4 | – | – |
| CCCCCCn1c(-c2ccc(OCc3ccccc3)cc2)nc2ccccc2c1=O | 10 | 45 | inactive | 18 | Active | Active | 178 | – | – |
| CC(C)CCn1c(-c2ccc(N(C)C)cc2)nc2ccccc2c1=O | 35 | 116 | – | 2 | – | – | 85 | – | – |
| O=c1c2ccccc2nc(-c2ccc(OCc3ccccc3)cc2)n1CCc1cc2ccccc2[nH]1 | 154 | 724 | – | 2 | – | – | ≥ 320 | – | – |
| C[C@@H]1CC[C@H]2[C@@H](C)C(=O)O[C@@H]3O[C@@]4(C)CC[C@@H]1[C@]32OO4 [ARTEMISININ] | 2 | 19 | – | 160 | – | – | ≥ 320 | – | – |
| O=c1c2ccccc2nc(-c2ccc(OCc3ccccc3)cc2)n1Cc1ccccc1 | 13 | 71 | – | 25 | inactive | inactive | ≥ 320 | > 70 | – |
| Oc1nc(-c2cccnc2)nc2ccccc12 | 94 | 225 | – | 3 | – | – | ≥ 320 | – | – |
| CC(C)=CCCC(C)=CCn1c(-c2ccc(OCc3ccccc3)cc2)nc2ccccc2c1=O | 7 | 58 | – | 46 | inactive | inactive | ≥ 320 | > 70 | – |
| COc1ccc(-n2c(-c3ccc(Br)cc3)nc3ccccc3c2=O)cc1 | 32 | 81 | – | 10 | – | – | ≥ 320 | – | – |
| CCCCCCCCCCn1c(-c2ccc(N(C)C)cc2)nc2ccccc2c1=O | 49 | 170 | – | 7 | – | – | ≥ 320 | – | – |
| O=c1c2ccccc2nc(-c2ccc(OCc3ccccc3)cc2)n1C1CCCCC1 | 6 | 46 | – | 53 | inactive | inactive | ≥ 320 | > 70 | – |
